These results are taken from US10973748B2, “Compositions and methods for lightening skin and reducing hyperpigmentation” (Versitech Limited, priority 2016, dated 2021).

Assay [1] deals with melan-a cells. Kind of assay: Cellular melanin content (SRB combined assay). The format is cell-based, murine. The settings on record: α-MSH, 72 hrs. On the procedure: Murine melan-a cells (an immortalized, non-tumorigenic murine melanocyte cell line) were obtained from Chinese University of Hong Kong. Cells were cultured in RPMI 1640 medium. Culture medium was supplemented with 10% FBS and 1% penicillin-streptomycin and the cells were incubated at 37° C. in 5% CO2. […] The tested chemical agents (e.g., 6-CEPN and Kojic acid) were individually dissolved as a stock solution at a concentration of 100 mM in 100% dimethyl sulfoxide (DMSO). The stock solution was diluted using culture medium to the desired final concentrations immediately prior to use.
Melan-a cells (3×10^5 cells/well) were plated in 2 mL of 12-well multidishes for at least 24 hrs prior to use. […] Melanin content was measured using a sulphorhodamine B (SRB) combined assay (Lam R Y et al., J Ethnopharmacol, 132(1):274-9 (2010); Chinese patent application publication no. CN 104758191 A) to ensure any reduction in the melanin content was not due to the death of melan-a cells. As the colorimetric-based SRB assay could accurately estimate the number of viable cells, the melanin level was expressed as melanin content versus each single cell by taking into account the results of viable cells from the SRB assay. […] After a 72 h incubate, cell number was counted using SRB assay. […] The OD value was read at 595 nm. […]
(In SRB staining, fixed cells bind dye roughly in proportion to their protein.)

The test system of assay [2] is melan-a cells. Kind of assay: Melanosome autophagy by fluorescence microscopy. The format is cell-based, murine. The conditions noted are these: α-MSH, rapamycin 0.5 μM 24 hrs, 6-CEPN 10 μM, 8-CEPQ 5 μM 72 hrs. On the procedure: Melan-a cells (1.5×10^5 cells/well) were seeded on coverslips in 6-well palte. The cells were treated with (1) α-MSH (1 μM) alone for 24 hrs, (2) α-MSH (1 μM) plus rapamycin (0.5 μM) for 24 hrs, (3) α-MSH (1 μM) plus 6-CEPN (10 μM), or (3) α-MSH (1 μM) plus 8-CEPQ (5 μM) for 72 hrs. Culture medium was removed carefully after the cells reached 50%˜70% level of confluence. Cells were stained by microscopy dual detection reagents (autophagy detection kit, Abcam) for 30 mins at 37° C. The stained cells were analyzed by wide-field fluorescence microscopy (60× magnification). Standard FITC filter and DAPI filter were set to image the autophagic signal and the nuclear signal, respectively.

Assay [3] deals with tyrosinase-related protein-1 (TRP1). Description: Western blotting of TRP-1 protein level in melan-a cells. Type of assay: cell-based, murine. The settings on record: α-MSH, 72 hrs, 20 μM. How it is done: Melan-a cells (3×10^5 cells/well) were seeded in 4 mL of culture medium in a 6-well plate for at least 24 hrs prior to use. The cells were treated with α-MSH (1 μM) alone, α-MSH plus plus different concentration of agents for 72 hrs. The cells were washed with cold PBS and then lysed in 100 μL of RIPA buffer containing 1% Nonidet P-40, 0.1% sodium dodecylsulfate, 0.5% sodium deoxycholate, and 2% protease inhibitor at 4° C. Samples were centrifuged at 14,000 rpm for 30 mins at 4° C., and total proteins in the supernatant were separated. 10 μg of denatured proteins were loaded per lane, and separated by 10% SDS-PAGE gel. Proteins were then transferred to Immobilon-P Transfer Membranes (Millipore Co., Bed-ford, Mass.) by semidry transfer. Membranes were incubated with primary antibodies specific for Tyrosinase, tyrosinase-related protein-1 (TRP1), tyrosinase-related protein-2 (TRP2), and microphthalmia-associated transcription factor (MITF). The blots were subsequently washed and incubated with the appropriate secondary antibodies. Immunoreactive protein bands were visualized with enhanced chemiluminescence western blotting detection reagents and quantified using an ODYSSEY Fc Imaging system. The amounts of protein loaded were normalized against a control protein, β-actin.
In general terms: A western blot detects proteins with antibodies after separation by electrophoresis.

Assay [4] has as its system MelanoDerm (Mel-300-A) epidermal equivalents containing melanocytes. Kind of assay: Solvable Melanin assay in artificial skin model. The settings on record: 14 days, rapamycin 2.5 μM, 6-CEPN 10 μM, 8-CEPQ 5 μM. Type of assay: cell-based, human. On the procedure: Epidermal equivalents containing melanocytes (Mel-300-A) were maintained according to the manufacturer's instructions. Mel-300-A tissue was cultured in EPI-100-NMM-113 medium for 14 days. Agents were dissolved in tissue culture medium and changed every other day. The test agents were either (1) rapamycin (2.5 μM), as the positive control in depigmentation, (2) 6-CEPN (10 μM), or (3) 8-CEPQ (5 μM). The concentration of rapamycin used was lower than 6-CEPN and 8-CEPQ, as rapamycin is toxic to cells at higher concentration. Pigmentation of these skin equivalents was compared against treatment of cells with a culture medium only (denoted as “vehicle”). Tissue viability was assessed on day 14 by CCK-8 assay as described in Example 1. On day 14, single tissues were harvested and photographed. The L* parameter was used to evaluate skin lightening or darkening. The lighter the skin, the greater the L* value. ΔL* value was measured by a Chroma Meter CR400 (Konica Minolta) for an evaluation of lightening as a function of time. Three tissues for each treatment were frozen for the Solvable Melanin assay (Bessou-Touya et al., “Chimeric human epidermal reconstructs to study the role of melanocytes and keratinocytes in pigmentation and photoprotection.” Journal of investigative dermatology 111(6):1103-1108 (1998)). Additional tissues were fixed by 10% formanin. […]

Take `O=C1C[C@@H](c2ccc(O)cc2)Oc2cc(O)c(/C=C/c3ccccc3)c(O)c21` [6-CEPN, 6-C-(E-phenylethenyl)-naringenin]: in the assay with melan-a cells [1], the “depigmenting effects (in words)” value was “much stronger depigmenting effects than kojic acid”. In addition, in the assay on melan-a cells [1] (20 μM), the depigmentation was ~80%. The melanosome autophagy entry with melan-a cells [2] was “induced melanosome autophagy”. Further, the “protein level of TRP-1” value in assay [3] is reported as “significantly suppressed”. For the same compound, the “amount of melanin in human skin equivalents” value in assay [4] is listed as “significantly inhibited the amount of melanin”.
